Laboratory results from PMC6669903 (Neuron, 2019).

Key:
[1] = system: Rac1; assay: Rac1 activity in spines by FRET-FLIM sensor during sLTP; assay type: cell-based, rat; conditions: change in lifetime of GFP-Rac1 in stimulated spines; uncaging 0.5 Hz
[2] = system: Tiam1/CaMKII complex; assay type: cell-based; conditions: bath application (AP5, KN-93) or cotransfection (CaMKIIN)
[3] = system: Tiam1 phosphorylation by CaMKII in neurons in dissociated culture; assay: Tiam1 phosphorylation after chemical LTP, Phos-tag SDS-PAGE; assay type: cell-based, rat; conditions: KN-93 10 µM; glycine 200 µM for 10 min
[4] = system: dendritic spines of CA1 pyramidal neurons in hippocampal organotypic slice cultures; assay: structural LTP; assay type: cell-based, rat

Row | Compound | effect on Rac1 activation during sLTP [1] | effect on Tiam1/CaMKII interaction after sLTP induction [2] | effect on persistent Tiam1 phosphorylation after chemical LTP [3] | effect on established sLTP, drug added 5 min after induction ([4]; applied 5 min after sLTP induction) | effect on established sLTP, drug added 15 min after induction ([4]; applied 15 min after sLTP induction) | effect on sLTP, drug added before induction ([4]; applied 30 min before sLTP induction, spines visualized by untagged GFP)
1 | COc1ccc(S(=O)(=O)N(CCO)c2ccccc2CN(C)C/C=C/c2ccc(Cl)cc2)cc1 [KN-93] | effectively blocked the activation of Rac1 | blocked | blocked |  |  | 
2 | O=c1cc(CN2CCOCC2)occ1OCCCCCSc1ccnc2cc(C(F)(F)F)ccc12 [EHT1864] |  |  |  | effectively blocked sLTP | effectively blocked sLTP | effectively inhibited sLTP
3 | N[C@H](CCCP(=O)(O)O)C(=O)O [AP5, D-(−)-2-Amino-5-phosphonopentanoic acid] |  | blocked |  |  |  | 
